{"source": "patent US20230219890A1", "about": "“BICYCLIC COMPOUNDS AND USE THEREOF” (Betta Pharmaceuticals Co.,Ltd, priority 2020, published 2023)"}
{"test_system": "VEGFA (786-O cells)", "assay": "VEGFA ELISA Assay (IC50)", "format": "cell-based", "settings": "24 hours incubation, VEGFA in culture supernatant by ELISA, class symbols", "protocol": "(§1) 786-O cells in exponential growth phase were seeded in 96-well plate, the cell concentration was 65,000 cells per milliliter of culture medium, 180 ul per well. Compounds were serial diluted to the indicated concentration, and 20 ul compound solutions of different concentrations were added to the corresponding cell wells. The final compound concentrations were as follows (nM): 1.5, 4.6, 13.7, 41.2, 123.5, 370.4, 1111.1, 3333.3, 10000. After 24 hours of incubation, the cell culture supernatant was taken, and the VEGFA concentration was determined using an ELISA kit (purchased from abcam). Finally, the reaction was terminated, and the light absorbance value of each well was measured using a microplate reader at a wavelength of […], and IC50 was calculated by GraphPad Prism. Cell Titer-Glo reagent was used to measure cell viability.", "units": {"IC50": "nM"}}
{"compound": "OC1c2c(C(F)(F)F)cn(Cc3cc(F)cc(Cl)c3)c2CCC1(F)F", "note": "(stereo not shown) [Example 29]", "IC50": "1500 to 10000"}
{"compound": "O[C@H]1c2c(C(F)(F)F)c(Cl)n(-c3ccc(F)c(Cl)c3)c2CCC1(F)F", "note": "[Example 107, (S)-2-chloro-1-(3-chloro-54-fluorophenyl)-5,5-difluoro-3-(trifluoromethyl)-4,5,6,7-tetrahydro-1H-indol-4-ol]", "IC50": "≤ 500"}
{"test_system": "VEGFA (786-O cells)", "assay": "VEGFA ELISA Assay (IC50)", "format": "cell-based", "settings": "Homo sapiens, 786-0, 24 h, 24 hours incubation, VEGFA in culture supernatant by ELISA, class symbols", "protocol": "as §1", "units": {"IC50": "nM"}}
{"compound": "N#Cc1cc(-n2cc(C(F)(F)F)c3c2CCC(F)(F)[C@@H]3F)ccc1F", "note": "(single isomer, unassigned) [Example 197]", "IC50": "≤ 500"}
{"compound": "N#Cc1cc(-n2cc(I)c3c2CCC(F)(F)C3O)ccc1F", "note": "(stereo not shown) [Example 5, 5-(5,5-difluoro-hydroxy-3-iodo-4,5,6,7-tetrahydro-1H-indol-1-yl)-2-fluorobenzonitrile]", "IC50": "500 to 1500"}
{"compound": "O=C1c2c(C(F)(F)F)cn(-c3cc(F)cc(Cl)c3)c2CCC1(F)F", "note": "[Example 6, 1-(3-chloro-5-fluorophenyl)-5,5-difluoro-3-(trifluoromethyl)-1,5,6,7-tetrahydro-4H-indol-4-one]", "IC50": "500 to 1500"}
{"compound": "N#Cc1ccc(-n2cc(C(F)(F)F)c3c2CCC(F)(F)C3O)cc1", "note": "(stereo not shown) [Example 13, 4-(5,5-difluoro-4-hydroxy-3 (trifluoromethyl)-4,5,6,7-tetrahydro-1H-indol-1-yl)benzonitrile]", "IC50": "≤ 500"}
{"compound": "OC1c2c(C(F)(F)F)cn(-c3cc(F)cc(C(F)(F)F)c3)c2CCC1(F)F", "note": "(stereo not shown) [Example 24]", "IC50": "≤ 500"}
{"compound": "N#Cc1cc(F)cc(-n2cc(C(F)(F)F)c3c2CCCC3O)c1", "note": "(stereo not shown) [Example 41, 3-fluoro-5-(4-hydroxy-3-(trifluoromethyl)-4,5,6,7-tetrahydo-1H-indol-1-yl)benzonitrile]", "IC50": "500 to 1500"}
{"compound": "Cn1cccc1-c1cn(-c2cc(F)cc(Cl)c2)c2c1C(O)C(F)(F)CC2", "note": "(stereo not shown) [Example 51, 1-(3-chloro-5-fluorophenyl)-5,5-difluoro-3-(1-methyl-1H-pyrrol-2-yl)-4,5,6,7-tetrahydro-1H-indol-4-ol]", "IC50": "500 to 1500"}
{"compound": "OC1c2c(-c3ccco3)cn(-c3cc(F)cc(Cl)c3)c2CCC1(F)F", "note": "(stereo not shown) [Example 53, 1-(3-chloro-5-fluorophenyl)-5,5-difluoro-3-(furan-2-yl)-4,5,6,7-tetrahydro-1H-indol-4-ol]", "IC50": "≤ 500"}
{"compound": "N#Cc1cc(-n2cc(-c3cncs3)c3c2CCC(F)(F)C3O)ccc1F", "note": "(stereo not shown) [Example 54, 5-(5,5-difluoro-4-hydroxy-3-(thiazol-5-yl)-4,5,6,7-tetrahydro-1H-indol-1-yl)-2-fluorobenzonitrile]", "IC50": "500 to 1500"}
{"compound": "OC1c2c(C(F)(F)F)cc(-c3cc(F)cc(Cl)c3)n2CCC1F", "note": "(stereo not shown) [Example 68, 3-(3-chloro-5-fluorophenyl)-7-fluoro-1-(trifluoromethyl)-5,6,7,8-tetrahydroindolizin-8-ol]", "IC50": "≤ 500"}
{"compound": "OC1c2c(C(F)(F)F)cc(-c3cc(F)cc(F)c3)n2CCC1(F)F", "note": "(stereo not shown) [Example 76, 3-(3,5-difluorophenyl)-7,7-difluoro-1-(trifluoromethyl)-5,6,7,8-tetrahydroindolizin-8-ol]", "IC50": "≤ 500"}
{"compound": "OC1c2c(C(F)(F)F)nn(-c3cc(F)cc(F)c3)c2CCC1(F)F", "note": "(stereo not shown) [Example 88, 1-(3,5-difluorophenyl)-5,5-difluoro-3-(trifluoromethyl)-4,5,6,7-tetrahydro-1H-indazol-4-ol]", "IC50": "> 1500"}
{"compound": "OC1c2c(C(F)(F)F)nn(-c3cc(F)cc(Cl)c3)c2CCC1(F)F", "note": "(stereo not shown) [Example 90, 1-(3-chloro-5-fluorophenyl)-5,5-difluoro-3-(trifluoromethyl)-4,5,6,7-tetrahydro-1H-indazol-4-ol]", "IC50": "> 1500"}
{"compound": "N#Cc1cc(F)cc(-n2nc(C(F)(F)F)c3c2CCC(F)(F)C3O)c1", "note": "(stereo not shown) [Example 92]", "IC50": "> 1500"}
{"compound": "CS(=O)(=O)c1nn(Cc2ccc(F)cc2)c2c1C(=O)CCC2", "note": "[Example 93, 1-(4-fluorobenzyl)-3-(methylsulfonyl)-1,5,6,7-tetrahydro-4H-indazol-4-one]", "IC50": "> 1500"}
{"compound": "N#Cc1cn(-c2cc(F)cc(Cl)c2)c2c1C(O)C(F)(F)CC2", "note": "(stereo not shown) [Example 96, 1-(3-chloro-5-fluorophenyl)-5,5-difluoro-4-hydroxyl-4,5,6,7-tetrahydro-1H-indol-3-carbonitrile]", "IC50": "≤ 500"}
{"compound": "OC1c2c(C(F)(F)F)cn(-c3cc(F)cc(Cl)c3)c2CCC1(F)F", "note": "(stereo not shown) [Example 97, 1-(3-chloro-5-fluorophenyl)-5,5-difluoro-3-(trifluoromethyl)-4,5,6,7-tetrahydro-1H-indol-4-ol]", "IC50": "≤ 500"}
{"compound": "CC1(O)c2c(C(F)(F)F)cn(-c3ccc(F)c(C#N)c3)c2CCC1(F)F", "note": "(stereo not shown) [Example 100, 5-(5,5-difluoro-4-hydroxyl-4-methyl-3-(trifluoromethyl)-4,5,6,7-tetrahydro-1H-indol-1-yl)-2-fluorobenzonitrile]", "IC50": "≤ 500"}
{"compound": "OC1CCCc2c1c(C(F)(F)F)cn2-c1ccc(F)c(C(F)F)c1", "note": "(stereo not shown) [Example 108, 1-(3-(difluoromethyl)-4-fluorophenyl)-3-(trifluoromethyl)-4,5,6,7-tetrahydro-1H-indol-4-ol]", "IC50": "≤ 500"}
{"compound": "CS(=O)(=O)c1cn(-c2cc(F)cc(Cl)c2)c2c1C(O)C(F)(F)CC2", "note": "(stereo not shown) [Example 109, 1-(3-chloro-5-fluorophenyl)-5,5-difluoro-3-(methylsulfonyl)-4,5,6,7-tetrahydro-1H-indol-4-ol]", "IC50": "≤ 500"}
{"compound": "OC1c2c(C(F)(F)F)cn(-c3ccc(Cl)cc3)c2CC(F)C1F", "note": "(stereo not drawn) [Example 130, l-(4-chlorophenyl)-5,6-difluoro-3-(trifluoromethyl)-4,5,6,7-tetrahydro-1H-indol-4-ol]", "IC50": "≤ 500"}
{"compound": "OC1c2c(C(F)(F)F)cn(-c3cncc(F)c3)c2CC(F)C1F", "note": "(stereo not shown) [Example 132, 5,6-difluoro-1-(5-fluoropyridin-3-yl)-3-(trifluoromethyl)-4,5,6,7-tetranydro-1H-indol-4-ol]", "IC50": "≤ 500"}
{"compound": "OC1c2c(C(F)(F)F)cn(-c3cncc(F)c3)c2CCC1(F)F", "note": "(stereo not shown) [Example 133]", "IC50": "500 to 1500"}
{"compound": "CS(=O)(=O)c1cn(-c2ccc(F)c(C#N)c2)c2c1[C@H](O)C(F)(F)CC2", "note": "[Example 134, (S)-5-(5,5-difluoro-4-hydroxy-3-(methylsulfonyl)-4,5,6,7-tetrahydro-1H-indol-1-yl)-2-fluorobenzonitrile]", "IC50": "≤ 500"}
{"compound": "N#Cc1cc(F)cc(-n2cc(C(F)(F)F)c3c2CCC(F)C3O)c1", "note": "(stereo not shown) [Example 139, 3-fluoro-5-(5-fluoro-4-hydroxy-3-(trifluoromethyl)-4,5,6,7-tetrahydro-1H-indol-1-yl)benzonitrile]", "IC50": "≤ 500"}
{"compound": "OC1c2c(C(F)(F)F)cn(-c3cc(F)cc(Cl)c3)c2C(F)CC1F", "note": "(stereo not shown) [Example 141]", "IC50": "≤ 500"}
{"compound": "OC1c2c(C(F)(F)F)cn(-c3cc(F)cc(Cl)c3)c2CCC1F", "note": "(stereo not shown) [Example 142, 1-(3-chloro-5-fluorophenyl)-5-fluoro-3-(trifluoromethyl)-4,5,6,7-tetrahydro-1H-indol-4-ol]", "IC50": "≤ 500"}
{"compound": "OC1c2c(-c3ccccc3)cn(-c3cc(F)cc(Cl)c3)c2CCC1(F)F", "note": "(stereo not shown) [Example 145]", "IC50": "1500 to 10000"}
{"compound": "N#Cc1cc(Cl)cc(-n2cc(C(F)(F)F)c3c2CCC(F)(F)C3O)c1", "note": "(stereo not shown) [Example 154, 3-chloro-5-(5,5-difluoro-4-hydroxy-3-(trifluoromethyl)-4,5,6,7-tetrahydro-1H-indol-1-yl)benzonitrile]", "IC50": "≤ 500"}
{"compound": "OC1c2c(C(F)(F)F)cn(-c3ccc(F)c(F)c3)c2CCC1(F)F", "note": "(stereo not shown) [Example 164]", "IC50": "≤ 500"}
{"compound": "OC1c2c(C(F)(F)F)cn(-c3ccc(F)nc3)c2CCC1(F)F", "note": "(stereo not shown) [Example 170]", "IC50": "500 to 1500"}
{"compound": "O[C@@H]1c2c(C(F)(F)F)cn(-c3ccc(F)c(C(F)F)c3)c2CCC1(F)F", "note": "[Example 174, (R)-1-(3-(difluoromethyl)-4-fluorophenyl)-5,5-difluoro-3-(trifluoromethyl)-4,5,6,7-tetrahydro-1H-indol-4-ol]", "IC50": "500 to 1500"}
{"compound": "N#CC1c2c(C(F)(F)F)cn(-c3ccc(F)cc3)c2CCC1(F)F", "note": "(stereo not shown) [Example 178, 5,5-difluoro-1-(4-fluorophenyl)-3-(trifluoromethyl)-4,5,6,7-tetrahydro-1H-indole-4-carbonitrile]", "IC50": "≤ 500"}
{"compound": "CC1Cc2c(c(C(F)(F)F)cn2-c2ccc(F)c(C#N)c2)C(O)C1(F)F", "note": "(stereo not shown) [Example 179, 5-(5,5-difluoro-4-hydroxy-6-methyl-3-(trifluoromethyl)-4,5,6,7-tetrahydro-1H-indol-1-yl)-2-fluorobenzonitrile]", "IC50": "500 to 1500"}
{"compound": "CC1Cc2c(c(C(F)(F)F)cn2-c2ccc(F)c(C#N)c2)[C@H](O)C1(F)F", "note": "(stereo partly shown) [Example 180]", "IC50": "500 to 1500"}
{"test_system": "VEGFA (786-O cells)", "assay": "VEGFA ELISA Assay (IC50)", "format": "cell-based", "settings": "Homo sapiens, 786-0, 24 h, 24 hours incubation, VEGFA in culture supernatant by ELISA, numeric values", "protocol": "as §1", "units": {"IC50": "nM"}}
{"compound": "OC1c2c(C(F)(F)F)cn(-c3cc(F)cc(Br)c3)c2CCC1(F)F", "note": "(stereo not shown) [Example 22]", "IC50": 55.4}
{"compound": "OC1c2c(C(F)(F)F)cc(-c3cc(F)cc(Cl)c3)n2CCC1(F)F", "note": "(stereo not shown) [Example 71, 3-(3-chloro-5-fluoropheny1)-7,7-difluoro-1-(trifluoromethyl)-5,6,7,8-tetrahydroindolizin-8-ol]", "IC50": 13.8}
{"compound": "N#Cc1cc(F)cc(-c2cc(C(F)(F)F)c3n2CCC(F)(F)C3O)c1", "note": "(stereo not shown) [Example 77, 3-(7,7-difluoro-8-hydroxy-1-(trifluoromethyl)-5,6,7,8-tetrahydroindolizin-3-yl)-5-fluorobenzonitrile]", "IC50": 16.2}
{"compound": "N#Cc1ccc(-n2cc(C(F)(F)F)c3c2CCC(F)(F)C3O)cc1F", "note": "(stereo not shown) [Example 122, 4-(5,5-difluoro-4-hydroxy-3-(trifluoromethyl)-4,5,6,7-tetrahydro-1H-indol-1-yl)-2-fluorobenzonitrile]", "IC50": 42.6}
{"compound": "N#Cc1cc(-n2cc(C(F)(F)F)c3c2CCC(F)(F)C3O)ccc1Cl", "note": "(stereo not shown) [Example 137]", "IC50": 42.1}
{"compound": "OC1c2c(C(F)(F)F)cn(-c3ccc(F)cc3)c2CCC1(F)F", "note": "(stereo not shown) [Example 160, 5,5-difluoro-1-(4-fluorophenyl)-3-(trifluoromethyl)-4,5,6,7-tetrahydro-1H-indol-4-ol]", "IC50": 46.1}
